Legend:
[1] = system: corn earworm (Helicoverpa zea); conditions: 50 μg/cm2, second-instar larvae, 5 days
[2] = system: beet armyworm (Spodoptera exigua); conditions: 50 μg/cm2, second-instar larvae, 5 days
[3] = system: cotton aphid (Aphis gossypii); experiment: Insecticidal test for cotton aphid, foliar spray on squash; conditions: for pest or weed control at 200 ppm / pest or weed control at 50 ppm: Aphis gossypii, foliar, 72 h; for pest or weed control at 200 ppm: read-out: CA 200: % control at 200 ppm against cotton aphid in foliar spray tests; for pest or weed control at 50 ppm: read-out: CA 50: % control at 50 ppm against cotton aphid in foliar spray tests
[4] = system: fruit fly (Drosophila melanogaster); conditions: for FF 25: % mortality at 25 μg/cm2 against fruit fly in dietary tests: 25 μg/cm2, 48 h; for FF SYM: % showing intoxicated symptoms at 25 μg/cm2 against fruit fly in dietary tests: 25 μg/cm2, 4 h
[5] = system: beet armyworm (Spodoptera exigua); experiment: Insecticidal test for beet armyworm in injection assays; conditions: 1 h, read-out: BAW SYM: % showing intoxicated symptoms at 10 μg/larva against beet armyworm in injection tests
[6] = system: sweet potato whitefly (Bemisia tabaci); experiment: Insecticidal test for sweet potato whitefly, foliar spray on cotton; conditions: Bemisia tabaci, in Gossypium hirsutum, foliar, read-out: SPW 200: % control at 200 ppm against sweet potato whitefly in foliar spray tests
[7] = system: green peach aphid (Myzus persicae); experiment: Insecticidal test for green peach aphid, foliar spray on cabbage seedlings; conditions: rundown assay, 3 days

SMILES	CEW 50: % mortality at 50 μg/cm2 against corn earworm in dietary tests [1]	BAW 50: % mortality at 50 μg/cm2 against beet armyworm in dietary tests [2]	pest or weed control at 200 ppm [3]	FF 25: % mortality at 25 μg/cm2 against fruit fly in dietary tests [4]	pest or weed control at 50 ppm [3]	other results
CC(C)C1CCCS1(=O)=NC#N (stereo not drawn) [Compound 32]	G (Inactive)	G (Inactive)	80 to 89%	G (Inactive)		pest or weed control at 0.01 mg [5]: 50 to 59%
CC(CS(C)(=O)=N[N+](=O)[O-])c1ccc(Cl)nc1 (stereo not drawn) [Compound 4, 2-Chloro-5-(1-methyl-2-{methyl(oxido)[oxido(oxo)hydrazono]-λ^4-sulfanyl}ethyl)pyridine]	G (Inactive)	G (Inactive)	< 50%	G (Inactive)		pest or weed control at 0.01 mg [5]: < 50%
CC(Cc1ccc(Cl)nc1)CS(C)(=O)=NC#N (stereo not drawn) [Compound 2, [3-(6-Chloropyridin-3-yl)-2-methylpropyl](methyl)oxido-λ^4-sulfanylidenecyanamide]	G (Inactive)	G (Inactive)	90 to 100%	G (Inactive)	80 to 89%	
COC(=O)N=S1(=O)CCCC1Cc1ccc(Cl)nc1 (stereo not drawn) [Compound 7, methyl 2-[(6-chloropyridin-3-yl)methyl]-1-oxidotetrahydro-1H-1λ^4-thien-1-ylidenecarbamate]	G (Inactive)	G (Inactive)	80 to 89%	G (Inactive)		
CC[S@@](=O)(C[C@H](C)c1ccc(Cl)nc1)=NC#N [Compound 16]	G (Inactive)	G (Inactive)	90 to 100%	G (Inactive)	90 to 100%	pest or weed control at 0.01 mg [5]: < 50%
CC[S@](=O)(=NC#N)[C@@H](C)c1ccc(Cl)nc1 [Compound 19]	G (Inactive)	G (Inactive)	90 to 100%	F (Less than 50)	90 to 100%	pest or weed control at 200 ppm [6]: 70 to 79%
CC[S@@](=O)(C[C@@H](C)c1ccc(Cl)nc1)=NC#N [Compound 17]	G (Inactive)	G (Inactive)	90 to 100%	G (Inactive)	90 to 100%	
CC(CS(C)(=O)=NC#N)c1ccc(Cl)nc1 (stereo not drawn) [Compound 15]	G (Inactive)	G (Inactive)	90 to 100%	G (Inactive)	80 to 89%	
CC(C)[C@H]1CCCS1(=O)=NC#N (stereo partly drawn) [Compound 31]	G (Inactive)	G (Inactive)	90 to 100%	G (Inactive)		
CC[S@](=O)(=N[N+](=O)[O-])[C@H](C)c1ccc(Cl)nc1 [Compound 39]	G (Inactive)	G (Inactive)	90 to 100%	F (Less than 50)		
CC(c1ccc(Cl)nc1)S(C)(=O)=N[N+](=O)[O-] (stereo not drawn) [Compound 36]	G (Inactive)	G (Inactive)	90 to 100%	F (Less than 50)	90 to 100%	% Control at ppm, against cotton aphid: 0.049 ([3]; 0.049 ppm, rundown assay): F (Less than 50); % Control at ppm, against cotton aphid: 0.195 ([3]; 0.195 ppm, rundown assay): F (Less than 50); % Control at ppm, against cotton aphid: 0.78 ([3]; 0.78 ppm, rundown assay): C (70-79); % Control at ppm, against cotton aphid: 3.12 ([3]; 3.12 ppm, rundown assay): A (90-100); % Control at ppm, against cotton aphid: 12.5 ([3]; 12.5 ppm, rundown assay): A (90-100); % Control at ppm, against cotton aphid: 50 ([3]; 50 ppm, rundown assay): A (90-100); FF SYM: % showing intoxicated symptoms at 25 μg/cm2 against fruit fly in dietary tests [4]: F (Less than 50); % Control at ppm, against green peach aphid: 0.049 ([7]; 0.049 ppm): F (Less than 50); % Control at ppm, against green peach aphid: 0.195 ([7]; 0.195 ppm): E (50-59); % Control at ppm, against green peach aphid: 0.78 ([7]; 0.78 ppm): D (60-69); % Control at ppm, against green peach aphid: 3.12 ([7]; 3.12 ppm): C (70-79); % Control at ppm, against green peach aphid: 12.5 ([7]; 12.5 ppm): A (90-100); % Control at ppm, against green peach aphid: 50 ([7]; 50 ppm): A (90-100)
CS(=O)(Cc1ccc(Cl)nc1)=N[N+](=O)[O-] (stereo not drawn) [Compound 33]	G (Inactive)	G (Inactive)	90 to 100%	F (Less than 50)	90 to 100%	FF SYM: % showing intoxicated symptoms at 25 μg/cm2 against fruit fly in dietary tests [4]: F (Less than 50)
CC(Cc1ccc(Cl)nc1)CS(C)(=O)=N[N+](=O)[O-] (stereo not drawn) [Compound 3, 2-chloro-5-(2-methyl-3-{methyl(oxido)[oxido-(oxo)hydrazono]-λ^4-sulfanyl}propyl)pyridine]	G (Inactive)	G (Inactive)	80 to 89%	G (Inactive)		
CCOc1ccc(S(C)(=O)=NC#N)cn1 (stereo not drawn) [Compound 42, (6-Ethoxypyridin-3-yl)(methyl)oxido-λ^4-sulfanylidenecyanamide]	G (Inactive)	G (Inactive)	90 to 100%	G (Inactive)	70 to 79%	
CC[S@](=O)(=N[N+](=O)[O-])[C@@H](C)c1ccc(Cl)nc1 [Compound 40]	G (Inactive)	G (Inactive)	80 to 89%	G (Inactive)		
Cc1ccc(CC2CCCS2(=O)=NC#N)cn1 (stereo not drawn) [Compound 30]	G (Inactive)	G (Inactive)	90 to 100%	G (Inactive)	90 to 100%	
N#CN=S1(=O)CCCC1c1ccccc1 (stereo not drawn) [Compound 22, (1-oxido-2-phenyltetrahydro-1H-11^4-thien-1-ylidene)cyanamide]	G (Inactive)	G (Inactive)	90 to 100%	G (Inactive)	80 to 89%	pest or weed control at 0.01 mg [5]: < 50%
N#CN=S1(=O)CCCCC1 [Compound 6, 1-Oxidohexahydro-1λ^4-thiopyran-1-ylidenecyanamide]	G (Inactive)	G (Inactive)		G (Inactive)		
CS(=O)(CCc1ccc(Cl)nc1)=N[N+](=O)[O-] (stereo not drawn) [Compound 37]	G (Inactive)	G (Inactive)	90 to 100%	G (Inactive)	90 to 100%	
